For experiment [1], the target named is T1, Diacylglycerol kinase eta (Homo sapiens) (UniProt Q86XP1).
T1 sequence (whole entry): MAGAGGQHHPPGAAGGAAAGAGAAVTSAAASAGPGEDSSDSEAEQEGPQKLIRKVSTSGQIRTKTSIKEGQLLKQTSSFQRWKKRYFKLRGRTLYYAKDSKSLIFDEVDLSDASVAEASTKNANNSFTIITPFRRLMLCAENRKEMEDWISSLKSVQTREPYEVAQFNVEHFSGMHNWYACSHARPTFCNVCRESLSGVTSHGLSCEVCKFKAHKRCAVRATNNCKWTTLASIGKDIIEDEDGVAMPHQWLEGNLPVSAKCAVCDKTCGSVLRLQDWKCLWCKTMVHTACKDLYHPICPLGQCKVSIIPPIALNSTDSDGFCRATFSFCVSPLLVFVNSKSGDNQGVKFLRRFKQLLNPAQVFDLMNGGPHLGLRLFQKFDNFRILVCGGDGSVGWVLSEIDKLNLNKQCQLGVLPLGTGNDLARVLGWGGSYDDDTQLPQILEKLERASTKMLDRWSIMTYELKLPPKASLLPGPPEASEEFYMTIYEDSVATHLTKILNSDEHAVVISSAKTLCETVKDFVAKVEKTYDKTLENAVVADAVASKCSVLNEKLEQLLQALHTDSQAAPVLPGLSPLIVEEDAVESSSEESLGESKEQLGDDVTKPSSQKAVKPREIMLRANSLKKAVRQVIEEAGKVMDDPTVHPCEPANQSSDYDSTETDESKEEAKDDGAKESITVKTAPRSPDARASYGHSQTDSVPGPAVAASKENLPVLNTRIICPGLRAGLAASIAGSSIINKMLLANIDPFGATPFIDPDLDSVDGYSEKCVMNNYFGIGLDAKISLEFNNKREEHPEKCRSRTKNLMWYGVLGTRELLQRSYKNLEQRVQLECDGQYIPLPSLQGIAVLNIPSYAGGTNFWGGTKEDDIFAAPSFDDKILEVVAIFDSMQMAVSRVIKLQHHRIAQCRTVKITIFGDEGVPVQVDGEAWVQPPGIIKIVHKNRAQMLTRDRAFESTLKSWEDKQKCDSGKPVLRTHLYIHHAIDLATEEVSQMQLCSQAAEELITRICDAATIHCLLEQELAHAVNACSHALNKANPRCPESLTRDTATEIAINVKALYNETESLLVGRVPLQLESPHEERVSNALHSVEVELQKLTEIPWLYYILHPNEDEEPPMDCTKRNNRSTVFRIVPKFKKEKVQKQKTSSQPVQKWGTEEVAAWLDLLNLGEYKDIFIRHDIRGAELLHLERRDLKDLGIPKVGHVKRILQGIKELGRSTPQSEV
The experiment in a line: Selectivity interaction (Kinase panel (KiNativ target engagement assay in Jurkat cells)) EUB0001635a DGKH. The experiment is classed as cell-based. The note with it: Selectivity number of off-targets 0.0, Selectivity number of targets 233.0, Source Knowledge https://www.sciencedirect.com/science/article/pii/S2451945619300674?via%3Dihub, at 1 µM.

Experiment [2] has as its target Cyclin-dependent kinase 17 (Homo sapiens) (UniProt Q00537). In words: Selectivity interaction (Kinase panel (KiNativ target engagement assay in Jurkat cells)) EUB0001635a CDK17. It counts as cell-based. The following applies: Selectivity number of off-targets 0.0, Selectivity number of targets 233.0, Source Knowledge https://www.sciencedirect.com/science/article/pii/S2451945619300674?via%3Dihub, at 1 µM.

Experiment [3] concerns the target T2, Muscle, skeletal receptor tyrosine-protein kinase (Homo sapiens) (UniProt O15146).
T2 sequence (whole entry): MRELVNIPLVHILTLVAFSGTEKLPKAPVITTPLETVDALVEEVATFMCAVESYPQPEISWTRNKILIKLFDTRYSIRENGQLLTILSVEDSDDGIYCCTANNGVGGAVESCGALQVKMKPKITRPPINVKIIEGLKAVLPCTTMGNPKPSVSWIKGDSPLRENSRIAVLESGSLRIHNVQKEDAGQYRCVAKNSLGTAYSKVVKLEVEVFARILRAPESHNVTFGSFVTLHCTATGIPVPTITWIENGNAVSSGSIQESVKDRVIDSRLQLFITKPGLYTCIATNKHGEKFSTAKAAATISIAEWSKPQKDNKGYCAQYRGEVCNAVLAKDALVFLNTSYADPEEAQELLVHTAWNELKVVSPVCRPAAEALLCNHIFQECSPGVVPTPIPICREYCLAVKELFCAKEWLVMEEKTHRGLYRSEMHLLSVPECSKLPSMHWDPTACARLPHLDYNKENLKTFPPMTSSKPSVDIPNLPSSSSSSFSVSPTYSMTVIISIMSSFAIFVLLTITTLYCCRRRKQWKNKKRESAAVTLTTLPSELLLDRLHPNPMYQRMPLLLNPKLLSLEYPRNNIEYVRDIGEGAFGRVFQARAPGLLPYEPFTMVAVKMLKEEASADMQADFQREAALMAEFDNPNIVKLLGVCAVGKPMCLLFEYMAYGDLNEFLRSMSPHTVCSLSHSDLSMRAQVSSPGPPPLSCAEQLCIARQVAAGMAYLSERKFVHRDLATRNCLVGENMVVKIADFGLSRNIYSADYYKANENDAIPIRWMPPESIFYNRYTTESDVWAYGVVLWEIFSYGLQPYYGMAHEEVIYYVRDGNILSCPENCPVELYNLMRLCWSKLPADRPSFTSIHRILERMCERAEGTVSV
The experiment in a line: Selectivity interaction (Ambit KINOMEscan and KiNATiv profiling in Jurkat cells) EUB0000090b MUSK. The experiment is classed as cell-based. The note with it: at 1 µM.

Experiment [4] deals with Macrophage colony-stimulating factor 1 receptor (Homo sapiens) (UniProt P07333). The experiment in a line: Selectivity interaction (KinomeScan (DiscoverX)) EUB0000666a CSF1R. The note with it: at 10 µM.
Sequence of Macrophage colony-stimulating factor 1 receptor (Homo sapiens) (P07333 whole entry): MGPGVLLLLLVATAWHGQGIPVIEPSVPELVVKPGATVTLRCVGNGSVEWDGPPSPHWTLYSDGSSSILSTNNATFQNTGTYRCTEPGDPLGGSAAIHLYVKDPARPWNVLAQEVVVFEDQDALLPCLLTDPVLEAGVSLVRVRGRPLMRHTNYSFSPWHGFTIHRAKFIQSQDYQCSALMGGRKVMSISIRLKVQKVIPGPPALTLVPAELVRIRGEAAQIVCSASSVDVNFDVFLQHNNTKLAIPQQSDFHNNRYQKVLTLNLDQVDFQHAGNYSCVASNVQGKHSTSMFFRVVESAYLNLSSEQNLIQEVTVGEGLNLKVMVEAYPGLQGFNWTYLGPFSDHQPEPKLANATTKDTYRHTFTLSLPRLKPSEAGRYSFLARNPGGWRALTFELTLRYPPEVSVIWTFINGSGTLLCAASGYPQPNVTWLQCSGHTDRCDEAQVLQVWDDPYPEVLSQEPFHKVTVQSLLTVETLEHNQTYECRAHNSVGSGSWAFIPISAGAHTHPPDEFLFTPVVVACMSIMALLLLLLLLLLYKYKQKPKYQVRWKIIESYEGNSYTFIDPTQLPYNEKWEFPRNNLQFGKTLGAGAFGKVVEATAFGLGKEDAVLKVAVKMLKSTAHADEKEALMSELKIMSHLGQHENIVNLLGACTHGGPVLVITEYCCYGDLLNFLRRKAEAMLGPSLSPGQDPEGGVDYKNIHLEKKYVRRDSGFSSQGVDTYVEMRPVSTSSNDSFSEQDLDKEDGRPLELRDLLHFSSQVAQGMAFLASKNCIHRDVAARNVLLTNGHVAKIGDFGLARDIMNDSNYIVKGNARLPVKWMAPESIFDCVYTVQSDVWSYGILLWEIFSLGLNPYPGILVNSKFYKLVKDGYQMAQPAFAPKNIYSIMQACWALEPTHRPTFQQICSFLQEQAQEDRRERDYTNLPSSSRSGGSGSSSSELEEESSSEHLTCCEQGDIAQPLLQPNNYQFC
Experiment [5] deals with Proto-oncogene tyrosine-protein kinase receptor Ret (Homo sapiens), P07949 [E762Q]. In words: (§1) Selectivity interaction (ProQinase) EUB0000171b RET.
Sequence of Proto-oncogene tyrosine-protein kinase receptor Ret (Homo sapiens), P07949 [E762Q] (P07949 61-1114 E762Q): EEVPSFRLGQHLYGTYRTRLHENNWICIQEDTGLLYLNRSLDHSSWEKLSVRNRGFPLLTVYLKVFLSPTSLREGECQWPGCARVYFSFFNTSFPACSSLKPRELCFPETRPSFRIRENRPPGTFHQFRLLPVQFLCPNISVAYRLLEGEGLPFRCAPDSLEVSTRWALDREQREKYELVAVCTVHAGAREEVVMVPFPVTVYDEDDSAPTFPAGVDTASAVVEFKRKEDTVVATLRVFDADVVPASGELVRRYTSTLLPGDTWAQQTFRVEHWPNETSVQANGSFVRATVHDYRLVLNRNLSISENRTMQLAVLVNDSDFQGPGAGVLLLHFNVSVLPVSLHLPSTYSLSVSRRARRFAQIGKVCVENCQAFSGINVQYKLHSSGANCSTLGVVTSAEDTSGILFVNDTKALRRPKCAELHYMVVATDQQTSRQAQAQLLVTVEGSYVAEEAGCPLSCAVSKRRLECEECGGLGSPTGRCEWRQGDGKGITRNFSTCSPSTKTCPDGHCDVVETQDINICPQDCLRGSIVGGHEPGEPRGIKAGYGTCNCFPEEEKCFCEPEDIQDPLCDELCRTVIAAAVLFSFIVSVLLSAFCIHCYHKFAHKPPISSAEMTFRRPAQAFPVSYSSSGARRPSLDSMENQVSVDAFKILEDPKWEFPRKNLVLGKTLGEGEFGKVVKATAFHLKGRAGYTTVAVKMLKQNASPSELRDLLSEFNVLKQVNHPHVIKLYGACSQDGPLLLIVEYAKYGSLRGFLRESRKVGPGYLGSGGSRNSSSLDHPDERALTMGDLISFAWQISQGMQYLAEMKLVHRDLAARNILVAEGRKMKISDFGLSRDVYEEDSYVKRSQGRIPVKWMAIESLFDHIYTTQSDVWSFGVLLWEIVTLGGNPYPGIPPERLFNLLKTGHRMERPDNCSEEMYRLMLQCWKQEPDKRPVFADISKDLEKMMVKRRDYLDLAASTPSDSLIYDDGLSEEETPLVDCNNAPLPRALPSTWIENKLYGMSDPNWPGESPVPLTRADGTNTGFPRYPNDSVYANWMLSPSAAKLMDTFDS
For experiment [6], the system named is Proto-oncogene tyrosine-protein kinase receptor Ret (Homo sapiens), P07949 [G691S]. The experiment is described as §1.
Sequence of Proto-oncogene tyrosine-protein kinase receptor Ret (Homo sapiens), P07949 [G691S] (P07949 whole entry G691S): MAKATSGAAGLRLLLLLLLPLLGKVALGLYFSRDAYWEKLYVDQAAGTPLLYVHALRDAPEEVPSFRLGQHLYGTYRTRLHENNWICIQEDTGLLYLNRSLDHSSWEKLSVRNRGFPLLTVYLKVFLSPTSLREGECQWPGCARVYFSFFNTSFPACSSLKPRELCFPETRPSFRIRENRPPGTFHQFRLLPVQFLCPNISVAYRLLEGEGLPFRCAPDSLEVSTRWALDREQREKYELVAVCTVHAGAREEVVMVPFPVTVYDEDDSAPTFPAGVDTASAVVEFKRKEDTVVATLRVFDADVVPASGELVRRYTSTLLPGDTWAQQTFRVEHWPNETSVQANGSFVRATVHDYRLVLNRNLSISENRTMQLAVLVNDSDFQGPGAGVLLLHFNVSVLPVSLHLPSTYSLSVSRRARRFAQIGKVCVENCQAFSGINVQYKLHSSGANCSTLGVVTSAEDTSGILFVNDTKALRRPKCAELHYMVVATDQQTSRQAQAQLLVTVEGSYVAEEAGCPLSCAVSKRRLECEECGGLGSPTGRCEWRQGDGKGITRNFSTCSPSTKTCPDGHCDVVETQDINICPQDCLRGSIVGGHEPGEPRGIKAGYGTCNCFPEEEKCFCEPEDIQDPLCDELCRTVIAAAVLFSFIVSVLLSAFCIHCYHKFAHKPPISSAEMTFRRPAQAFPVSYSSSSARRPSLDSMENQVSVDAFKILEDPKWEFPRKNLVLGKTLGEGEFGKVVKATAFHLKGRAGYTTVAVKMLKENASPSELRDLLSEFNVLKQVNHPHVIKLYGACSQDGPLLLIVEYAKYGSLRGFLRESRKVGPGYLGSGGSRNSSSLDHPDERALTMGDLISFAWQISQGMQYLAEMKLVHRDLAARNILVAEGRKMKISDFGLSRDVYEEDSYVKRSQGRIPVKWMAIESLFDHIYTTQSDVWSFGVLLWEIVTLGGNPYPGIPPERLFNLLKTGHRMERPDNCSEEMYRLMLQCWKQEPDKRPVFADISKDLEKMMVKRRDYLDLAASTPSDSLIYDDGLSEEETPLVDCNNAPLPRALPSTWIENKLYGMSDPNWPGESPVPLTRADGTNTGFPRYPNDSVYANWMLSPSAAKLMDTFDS
The subject of experiment [7] is Proto-oncogene tyrosine-protein kinase receptor Ret (Homo sapiens), P07949 [M918T]. The experiment is described as §1.
For experiment [8], the system named is Proto-oncogene tyrosine-protein kinase receptor Ret (Homo sapiens), P07949 [R749T]. Described as §1.
Sequence of Proto-oncogene tyrosine-protein kinase receptor Ret (Homo sapiens), P07949 [R749T] (P07949 whole entry R749T): as the sequence (P07949 whole entry G691S) above, with S691G, R749T counted along it
For experiment [9], the system named is Proto-oncogene tyrosine-protein kinase receptor Ret (Homo sapiens), P07949 [R813Q]. The description is as §1.
Sequence of Proto-oncogene tyrosine-protein kinase receptor Ret (Homo sapiens), P07949 [R813Q] (P07949 whole entry R813Q): as the sequence (P07949 whole entry G691S) above, with S691G, R813Q counted along it
Experiment [10] concerns Proto-oncogene tyrosine-protein kinase receptor Ret (Homo sapiens), P07949 [S891A]. The description is as §1.
Sequence of Proto-oncogene tyrosine-protein kinase receptor Ret (Homo sapiens), P07949 [S891A] (P07949 whole entry S891A): as the sequence (P07949 whole entry G691S) above, with S691G, S891A counted along it
Experiment [11] deals with Proto-oncogene tyrosine-protein kinase receptor Ret (Homo sapiens), P07949 [V804L]. The experiment is described as §1.
Sequence of Proto-oncogene tyrosine-protein kinase receptor Ret (Homo sapiens), P07949 [V804L] (P07949 whole entry V804L): as the sequence (P07949 whole entry G691S) above, with S691G, V804L counted along it
Experiment [12] concerns Proto-oncogene tyrosine-protein kinase receptor Ret (Homo sapiens), P07949 [V804M]. The experiment is described as §1.
Sequence of Proto-oncogene tyrosine-protein kinase receptor Ret (Homo sapiens), P07949 [V804M] (P07949 whole entry V804M): as the sequence (P07949 whole entry G691S) above, with S691G, V804M counted along it
Experiment [13] deals with Proto-oncogene tyrosine-protein kinase receptor Ret (Homo sapiens), P07949 [Y791F]. Described as §1.
Sequence of Proto-oncogene tyrosine-protein kinase receptor Ret (Homo sapiens), P07949 [Y791F] (P07949 whole entry Y791F): as the sequence (P07949 whole entry G691S) above, with S691G, Y791F counted along it
The target of experiment [14] is Proto-oncogene tyrosine-protein kinase receptor Ret (Homo sapiens, UniProt P07949). Described as §1.
Sequence of Proto-oncogene tyrosine-protein kinase receptor Ret (P07949 whole entry): as the sequence (P07949 whole entry G691S) above, with S691G counted along it

These results are taken from ChEMBL document CHEMBL5465560, “Selectivity Literature for EUbOPEN Chemogenomic Library” (2024).

Sequence of Proto-oncogene tyrosine-protein kinase receptor Ret (Homo sapiens), P07949 [M918T] (P07949 whole entry M918T): as the sequence (P07949 whole entry G691S) above, with S691G, M918T counted along it
Sequence of Cyclin-dependent kinase 17 (Homo sapiens) (Q00537 whole entry, looked up): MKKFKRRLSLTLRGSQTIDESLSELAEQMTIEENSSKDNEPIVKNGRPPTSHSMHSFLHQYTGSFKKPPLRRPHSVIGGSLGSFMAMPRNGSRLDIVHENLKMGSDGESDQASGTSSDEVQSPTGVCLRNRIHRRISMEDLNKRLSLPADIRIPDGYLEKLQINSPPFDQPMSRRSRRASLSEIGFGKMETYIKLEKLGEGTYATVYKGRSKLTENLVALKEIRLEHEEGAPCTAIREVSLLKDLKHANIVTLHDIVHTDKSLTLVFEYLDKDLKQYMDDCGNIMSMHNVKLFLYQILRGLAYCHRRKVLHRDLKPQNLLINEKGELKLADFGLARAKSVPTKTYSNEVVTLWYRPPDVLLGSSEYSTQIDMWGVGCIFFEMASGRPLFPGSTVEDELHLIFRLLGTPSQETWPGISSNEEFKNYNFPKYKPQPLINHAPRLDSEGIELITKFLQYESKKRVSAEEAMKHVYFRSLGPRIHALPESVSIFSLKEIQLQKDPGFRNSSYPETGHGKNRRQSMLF

Regarding `C=CC(=O)Nc1ccc(C(=O)Nc2[nH]nc3c2CN(C(=O)N[C@H](CN(C)C)c2ccccc2)C3(C)C)cc1`, the % of engagement in experiment [1] was 16.5%; in experiment [2] it was 9.3%.

`CN(C)C/C=C/C(=O)Nc1ccc(C(=O)N2CCCC(Nc3ncc(Cl)c(-c4c[nH]c5ccccc45)n3)C2)cc1` (centres undefined): the % of control in [3] was 96%.

`O=C(NOC[C@H](O)CO)c1ccc(F)c(F)c1Nc1ccc(I)cc1F` returned a % of control in experiment [4] of 100%.

Turning to `C=CC(=O)Nc1cccc(C(=O)Nc2ccc(Nc3cc(-c4[nH]c(SC)nc4C)ccn3)cc2)c1`, the % of control in [5] (at 1 µM) amounted to 95%; in [5] (at 5 µM), 78%; in experiment [6] (at 1 µM), 90%; in [6] (at 5 µM) it was 77%; in experiment [7] (at 1 µM), 97%; in [7] (at 5 µM) it was 82%. Also, the % of control was determined as 96% in experiment [8] (at 1 µM); 76% in experiment [8] (at 5 µM); 98% in [9] (at 1 µM); 75% in experiment [9] (at 5 µM); 95% in [10] (at 1 µM); 74% in experiment [10] (at 5 µM). For the same compound, the % of control in experiment [11] (at 1 µM) stood at 88%; in experiment [11] (at 5 µM) it was 80%; in experiment [12] (at 1 µM), 98%; in experiment [12] (at 5 µM), 90%; in [13] (at 1 µM), 96%; in experiment [13] (at 5 µM), 71%. Further, the % of control in experiment [14] (at 1 µM) stood at 87%; in experiment [14] (at 5 µM) it was 72%.
